Data taken from patent US11306124B2, “Agonist agents of CD47 inducing programmed cell death and their use in the treatments of diseases associated with defects in programmed cell death” (SORBONNE UNIVERSITE, priority 2016, dated 2022).
Read-outs that look alike come from different tables or passages of the source. Residues, ends and D or L forms follow the SMILES beside them.

Key:
[1] = test system: Trypsin, Chymotrypsin and Proteinase K; assay: Proteolytic stability (incubation with proteases or in Human Serum); format: in vitro ADME
Method: Proteolytic stability studies were performed by peptides incubation with proteases (such as Trypsin, Chymotrypsin and Proteinase K) or in Human Serum as described earlier (See Karoyan et al. J. Med. Chem. 2016).

HCT-116 cells = format: cell-based, human; settings: 2 h; for Early Apoptosis, Mean (%) / Late apoptosis, Mean (%): HCT-116 cells; for Viable, Mean (%): human
Method: 2.2.2. Cell Death Analysis by Flow Cytometry
To detect possible apoptotic processes, cells were seeded in 35 mm dishes and cultured in media containing each tested cyclic peptide for 2 hours following procedure A or B.
Procedure B: Peptides were incubated for 2 hours on HCT-116 cells. Superkiller Trail (ALX-201-115C-010) was used as a positive pro-apoptotic control. Cells were analyzed by cytofluorometry using FITC Annexin V apoptosis detection kit with 7-AAD from BIOLEGEND (BLE640922).

[2] = test system: MCF-7, HCT-116, BxPC3 and A549 cancer cells; assay: Cell viability and proliferation of tumor cells (cytotoxic assay and direct cell counting); format: cell-based, human; settings: 2 hours, 10 to 50 μM peptide concentration
Method: The effects of several cyclic peptides of the invention on the proliferation of tumor cells were evaluated on 5 cell lines (MCF-7, human breast cancer cells; HCT-116, human colon cancer cells; BxPC3, human pancreas cancer cells and A549, human lung cancer cells) by cytotoxic assay and by counting directly the number of cells.
Those cyclic peptides were dissolved in DMSO at the following concentrations: 0, 5, 10, 25, 50 and 100 μM.
Culture media used for these assays are: EMEM=10% SVF for MCF-7 and Wi38; RPMI […] SVF for HCT-116 and BxPC3 and F-12K=10% SVF for A549.
500 cells were seeded in 96-well plates, incubated at 37° C. for 24 hours, and treated by the cyclic peptides at the different concentrations and controls for 2 h.

[3] = test system: B-chronic lymphocytic leukemia (CLL) primary cells; settings: cited from earlier work; for induction of caspase-independent PCD: soluble peptide, CLL primary cells
[4] = peptide concentration 12.5 (μM)

| Molecule | stability toward proteases [1] | Early Apoptosis, Mean (%) (HCT-116 cells; [4]) | Late apoptosis, Mean (%) (HCT-116 cells; [4]) | Early Apoptosis, Mean (%) (HCT-116 cells; peptide concentration 25 (μM)) | Late apoptosis, Mean (%) (HCT-116 cells; peptide concentration 25 (μM)) | Early Apoptosis, Mean (%) (HCT-116 cells; peptide concentration 50 (μM)) | Late apoptosis, Mean (%) (HCT-116 cells; peptide concentration 50 (μM)) | Viable, Mean (%) (HCT-116 cells; 12.5 μM) | Viable, Mean (%) (HCT-116 cells; 25 μM) | Viable, Mean (%) (HCT-116 cells; 50 μM) | viability in all cell strains [2] | further results |
| --- | --- | --- | --- | --- | --- | --- | --- | --- | --- | --- | --- | --- |
| CSCC[C@@H]1NC(=O)[C@H](C(C)C)NC(=O)[C@H](C(C)C)NC(=O)[C@H](Cc2ccc(O)cc2)NC(=O)[C@H](Cc2ccccc2)NC(=O)[C@H](C(C)C)NC(=O)[C@H](C(C)C)NC(=O)[C@H](CCCCN)NC(=O)[C@H](C(C)C)NC(=O)[C@H](CO)NC(=O)[C@H](CC(C)C)NC(=O)[C@@H]2CCCN2C(=O)[C@H]2CCCN2C(=O)[C@H](Cc2c[nH]c3ccccc23)NC1=O [PKD8, —F—Y—V—V—M—W—p—P—L—S—V—K—V—V—] (HELM PEPTIDE1{L.S.V.K.V.V.F.Y.V.V.M.W.[dP].P}$PEPTIDE1,PEPTIDE1,1:R1-14:R2$$$V2.0) | fully stable | – | – | – | – | – | – | – | – | – | – | – |
| CCCC[C@@H]1NC(=O)[C@H](C(C)C)NC(=O)[C@H](C(C)C)NC(=O)[C@H](Cc2ccc(O)cc2)NC(=O)[C@H](Cc2ccccc2)NC(=O)[C@H](C(C)C)NC(=O)[C@H](C(C)C)NC(=O)[C@H](CCCCN)NC(=O)[C@H](C(C)C)NC(=O)[C@H](CO)NC(=O)[C@H](CC(C)C)NC(=O)[C@@H]2CCCN2C(=O)[C@H]2CCCN2C(=O)[C@H](Cc2c[nH]c3ccccc23)NC1=O [PKD9, —F—Y—V—V—X—W—p—P—L—S—V—K—V—V— X = NLe] (HELM PEPTIDE1{L.S.V.K.V.V.F.Y.V.V.[Nle].W.[dP].P}$PEPTIDE1,PEPTIDE1,1:R1-14:R2$$$V2.0) | fully stable | – | – | – | – | – | – | – | – | – | – | – |
| CC(C)C[C@@H]1NC(=O)[C@@H]2CCCN2C(=O)[C@H]2CCCN2C(=O)[C@H](Cc2c[nH]c3ccccc23)NC(=O)[C@H](CCCCN)NC(=O)[C@H](C(C)C)NC(=O)[C@H](C(C)C)NC(=O)[C@H](Cc2ccc(O)cc2)NC(=O)[C@H](Cc2ccccc2)NC(=O)[C@H](C(C)C)NC(=O)[C@H](C(C)C)NC(=O)[C@H](CCCCN)NC(=O)[C@H](C(C)C)NC(=O)[C@H](CO)NC1=O [PKD10, —F—Y—V—V—K—W—p—P—L—S—V—K—V—V—] (HELM PEPTIDE1{L.S.V.K.V.V.F.Y.V.V.K.W.[dP].P}$PEPTIDE1,PEPTIDE1,1:R1-14:R2$$$V2.0) | fully stable | – | – | – | – | – | – | – | – | – | – | – |
| CSCC[C@@H]1NC(=O)[C@H](C(C)C)NC(=O)[C@H](C(C)C)NC(=O)[C@H](Cc2ccc(O)cc2)NC(=O)[C@H](Cc2ccccc2)NC(=O)[C@H](CCCNC(=N)N)NC(=O)[C@H](CO)NC(=O)[C@H](CO)NC(=O)[C@H](CC(N)=O)NC(=O)[C@H](C(C)C)NC(=O)[C@H](C(C)C)NC(=O)[C@H](CCCCN)NC(=O)[C@H](C(C)C)NC(=O)[C@H](C)NC(=O)[C@H](CC(C)C)NC(=O)CNC(=O)[C@@H]2CCCN2C(=O)[C@H]2CCCN2C(=O)[C@H](CCCCN)NC(=O)[C@H](Cc2c[nH]c3ccccc23)NC1=O [PKTD10-3, —S—R—F—Y—V—V—M—W—K—p—P—G—L—A—V—K—V—V—N—S—] (HELM PEPTIDE1{S.R.F.Y.V.V.M.W.K.[dP].P.G.L.A.V.K.V.V.N.S}$PEPTIDE1,PEPTIDE1,1:R1-20:R2$$$V2.0) | – | 8.17% | 4.35% | 13.16% | 7.06% | 13.13% | 6.85% | 86.83% | 79.30% | 79.67% | dose-dependent viability decrease | – |
| CSCC[C@@H]1NC(=O)[C@H](C(C)C)NC(=O)[C@H](C(C)C)NC(=O)[C@H](Cc2ccc(O)cc2)NC(=O)[C@H](Cc2ccccc2)NC(=O)[C@H](CCCNC(=N)N)NC(=O)[C@H](CO)NC(=O)[C@H](CO)NC(=O)[C@H](CC(N)=O)NC(=O)[C@H](C(C)C)NC(=O)[C@H](C(C)C)NC(=O)[C@H](CCCCN)NC(=O)[C@H](C)NC(=O)[C@H](CO)NC(=O)[C@H](CC(C)C)NC(=O)CNC(=O)[C@@H]2CCCN2C(=O)[C@H]2CCCN2C(=O)[C@H](CCCCN)NC(=O)[C@H](Cc2c[nH]c3ccccc23)NC1=O [PKTD10-4, —S—R—F—Y—V—V—M—W—K—p—P—G—L—S—A—K—V—V—N—S—] (HELM PEPTIDE1{S.R.F.Y.V.V.M.W.K.[dP].P.G.L.S.A.K.V.V.N.S}$PEPTIDE1,PEPTIDE1,1:R1-20:R2$$$V2.0) | – | 9.27% | 4.39% | 11.91% | 5.54% | 15.68% | 7.53% | 85.90% | 82.41% | 76.52% | dose-dependent viability decrease | – |
| CSCC[C@@H]1NC(=O)[C@H](C(C)C)NC(=O)[C@H](C(C)C)NC(=O)[C@H](Cc2ccc(O)cc2)NC(=O)[C@H](Cc2ccccc2)NC(=O)[C@H](CCCNC(=N)N)NC(=O)[C@H](CC(N)=O)NC(=O)[C@H](C(C)C)NC(=O)[C@H](C(C)C)NC(=O)[C@H](CCCCN)NC(=O)[C@H](C(C)C)NC(=O)[C@H](CO)NC(=O)[C@H](CC(C)C)NC(=O)CNC(=O)[C@H](CO)NC(=O)[C@@H]2CCCN2C(=O)[C@H]2CCCN2C(=O)[C@H](CCC(N)=O)NC(=O)[C@H](CCCCN)NC(=O)[C@H](Cc2c[nH]c3ccccc23)NC1=O [PKTD12, —R—F—Y—V—V—M—W—K—Q—p—P—S—G—L—S—V—K—V—V—N—] (HELM PEPTIDE1{R.F.Y.V.V.M.W.K.Q.[dP].P.S.G.L.S.V.K.V.V.N}$PEPTIDE1,PEPTIDE1,1:R1-20:R2$$$V2.0) | – | 5.78% | 3.11% | 7.15% | 3.26% | 19.16% | 6.80% | 90.87% | 89.42% | 73.78% | dose-dependent viability decrease | – |
| K-RFYVVMWK-K (KRFYVVMWKK; listed as Homo sapiens) [Peptide 4N1K, soluble decapeptide that mimics the C-terminal domain of TSP-1] | – | – | – | – | – | – | – | – | – | – | – | selective elimination of leukemic B-cells versus healthy B-lymphocytes or resting normal B-cells from CLL patients ([3]; CD47 ligation): specifically eliminates leukemic B-cells; induction of caspase-independent PCD [3]: induces caspase-independent PCD |
| KRFYGGMWKK [Peptide 4NGG, linear negative control peptide, 4N1K mutated in two amino acids] | – | – | – | – | – | – | – | – | – | – | – | induction of caspase-independent PCD [3]: unable to induce PCD |
